# Laboratory results taken from ChEMBL document CHEMBL3351804, “Development of 2-aryl substituted quinazolin-4(3H)-one, pyrido[4,3-d]pyrimidin-4(3H)-one and pyrido[2,3-d]pyrimidin-4(3H)-one derivatives as microsomal prostaglandin E(2) synthase-1 inhibitors” (Bioorg Med Chem Lett, 2014).
# How the values were obtained:
# Prostaglandin E synthase [1] = target: T1, Prostaglandin E synthase (Homo sapiens, UniProt O14684); experiment: Inhibition of human recombinant mPGES-1 expressed in CHO cells using PGH2 as substrate incubated for 10 mins prior to substrate addition measured after 1 min
# T1 sequence (O14684 whole entry): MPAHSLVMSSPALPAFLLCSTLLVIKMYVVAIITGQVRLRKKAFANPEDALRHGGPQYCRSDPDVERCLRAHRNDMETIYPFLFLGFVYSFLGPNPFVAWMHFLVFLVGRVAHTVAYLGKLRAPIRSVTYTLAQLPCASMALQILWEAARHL
# Prostaglandin E synthase [2] = target: T1, Prostaglandin E synthase; experiment: Inhibition of mPGES-1 in human whole blood assessed as inhibition of LPS-induced PGE2 production after overnight incubation
# [3] = target: Prostaglandin G/H synthase 1 (Homo sapiens) (UniProt P23219); experiment: Inhibition of COX1 in human U937 cells at 10 uM; type: cell-based; details: U-937
# [4] = target: Prostaglandin E synthase 2 (Homo sapiens) (UniProt Q9H7Z7); experiment: Inhibition of recombinant mPGES-2 (unknown origin) at 10 uM
# [5] = target: T2, Prostaglandin E synthase 3 (Homo sapiens) (UniProt Q15185); experiment: Inhibition of recombinant cPGES (unknown origin) at 10 uM
# T2 sequence (whole entry): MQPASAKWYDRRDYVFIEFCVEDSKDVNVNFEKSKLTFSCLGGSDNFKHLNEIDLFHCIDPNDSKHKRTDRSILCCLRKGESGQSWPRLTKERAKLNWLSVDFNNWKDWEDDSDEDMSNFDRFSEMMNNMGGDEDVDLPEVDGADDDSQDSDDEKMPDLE
# [6] = target: T3, Thromboxane-A synthase (Homo sapiens) (UniProt P24557); experiment: Inhibition of recombinant TXAS (unknown origin) at 10 uM
# T3 sequence (whole entry): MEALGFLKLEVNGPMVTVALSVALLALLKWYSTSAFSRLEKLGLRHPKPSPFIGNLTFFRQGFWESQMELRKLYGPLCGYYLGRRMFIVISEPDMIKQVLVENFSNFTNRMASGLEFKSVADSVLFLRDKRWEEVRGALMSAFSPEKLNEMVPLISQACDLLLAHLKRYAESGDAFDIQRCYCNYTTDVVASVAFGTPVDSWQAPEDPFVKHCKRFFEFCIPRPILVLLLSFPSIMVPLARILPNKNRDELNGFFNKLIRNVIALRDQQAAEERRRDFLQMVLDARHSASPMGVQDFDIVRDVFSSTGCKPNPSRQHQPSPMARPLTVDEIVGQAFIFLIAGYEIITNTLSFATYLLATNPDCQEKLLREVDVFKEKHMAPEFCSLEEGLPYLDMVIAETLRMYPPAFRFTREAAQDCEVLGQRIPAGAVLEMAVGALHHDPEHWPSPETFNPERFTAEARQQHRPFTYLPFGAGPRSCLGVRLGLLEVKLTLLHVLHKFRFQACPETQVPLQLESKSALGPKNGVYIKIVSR
# [7] = target: T4, Cytosolic phospholipase A2 (Homo sapiens) (UniProt P47712); experiment: Inhibition of cPLA2 (unknown origin) at 10 uM
# T4 sequence (whole entry): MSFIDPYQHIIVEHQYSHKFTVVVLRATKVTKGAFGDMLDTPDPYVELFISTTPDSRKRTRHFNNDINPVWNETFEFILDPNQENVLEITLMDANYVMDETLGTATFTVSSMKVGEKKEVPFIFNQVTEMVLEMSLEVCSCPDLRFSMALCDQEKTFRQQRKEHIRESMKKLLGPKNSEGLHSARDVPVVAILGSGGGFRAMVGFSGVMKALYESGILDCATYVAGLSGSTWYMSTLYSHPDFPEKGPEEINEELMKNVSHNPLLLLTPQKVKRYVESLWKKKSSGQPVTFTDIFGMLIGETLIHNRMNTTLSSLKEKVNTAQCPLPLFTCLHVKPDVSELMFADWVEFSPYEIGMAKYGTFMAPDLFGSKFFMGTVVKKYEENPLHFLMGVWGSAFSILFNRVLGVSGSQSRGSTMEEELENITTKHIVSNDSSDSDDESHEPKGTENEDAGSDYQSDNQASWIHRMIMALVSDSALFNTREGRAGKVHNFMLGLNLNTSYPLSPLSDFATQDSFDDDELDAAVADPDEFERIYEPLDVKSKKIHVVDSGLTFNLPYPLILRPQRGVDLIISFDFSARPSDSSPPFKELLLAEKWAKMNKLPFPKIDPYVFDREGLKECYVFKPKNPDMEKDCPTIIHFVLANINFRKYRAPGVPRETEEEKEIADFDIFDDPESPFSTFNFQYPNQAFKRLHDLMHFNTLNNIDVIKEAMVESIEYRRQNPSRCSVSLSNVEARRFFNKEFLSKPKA
# [8] = Inhibition of guinea pig recombinant mPGES-1; set-up: species or system Cavia porcellus
# [9] = Inhibition of mPGES-1 in guinea pig whole blood assessed as inhibition of LPS-induced PGE2 production after overnight incubation; type: tissue-based; details: Cavia porcellus
# Prostaglandin E synthase [10] = target: T5, Prostaglandin E synthase (Canis lupus familiaris, UniProt A0SYQ0); experiment: Inhibition of mPGES-1 in dog whole blood assessed as inhibition of LPS-induced PGE2 production after overnight incubation
# T5 sequence (A0SYQ0 whole entry): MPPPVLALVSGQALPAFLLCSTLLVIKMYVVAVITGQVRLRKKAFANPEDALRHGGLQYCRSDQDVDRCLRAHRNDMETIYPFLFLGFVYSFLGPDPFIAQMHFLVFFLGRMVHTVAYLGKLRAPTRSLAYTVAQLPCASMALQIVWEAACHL
# [11] = Cmax in Sprague-Dawley rat at 10 mg/kg, po; type: ADME, organism-based; set-up: dose 10 mg/kg, route oral; details: in vivo
# [12] = Tmax in Sprague-Dawley rat at 10 mg/kg, po; type: ADME, organism-based; set-up: dose 10 mg/kg, route oral; details: in vivo
# [13] = Stability in rat liver microsomes assessed as compound remaining after 60 mins; type: ADME; details: read-out: Stability
# [14] = Stability in guinea pig liver microsomes assessed as compound remaining after 60 mins; type: ADME, Cavia porcellus; details: read-out: Stability
# Chain of Prostaglandin G/H synthase 1 (Homo sapiens) (P23219 whole entry): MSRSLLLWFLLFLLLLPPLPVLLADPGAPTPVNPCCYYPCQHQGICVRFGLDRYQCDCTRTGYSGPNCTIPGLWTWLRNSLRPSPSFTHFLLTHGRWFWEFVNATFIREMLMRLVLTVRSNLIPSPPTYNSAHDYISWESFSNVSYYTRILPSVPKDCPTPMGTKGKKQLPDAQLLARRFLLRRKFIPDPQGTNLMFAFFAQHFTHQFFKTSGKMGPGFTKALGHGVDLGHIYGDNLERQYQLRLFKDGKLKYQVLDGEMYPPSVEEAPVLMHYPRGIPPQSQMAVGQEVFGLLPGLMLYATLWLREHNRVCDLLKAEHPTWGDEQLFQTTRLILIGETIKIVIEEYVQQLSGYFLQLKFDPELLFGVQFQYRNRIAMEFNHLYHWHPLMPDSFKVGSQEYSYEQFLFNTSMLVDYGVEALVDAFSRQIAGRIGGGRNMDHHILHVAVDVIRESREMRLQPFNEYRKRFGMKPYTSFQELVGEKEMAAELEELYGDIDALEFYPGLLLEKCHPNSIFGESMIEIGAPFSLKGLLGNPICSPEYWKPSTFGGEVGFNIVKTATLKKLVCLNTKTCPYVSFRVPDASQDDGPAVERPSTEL
# Chain of Prostaglandin E synthase 2 (Homo sapiens) (Q9H7Z7 whole entry): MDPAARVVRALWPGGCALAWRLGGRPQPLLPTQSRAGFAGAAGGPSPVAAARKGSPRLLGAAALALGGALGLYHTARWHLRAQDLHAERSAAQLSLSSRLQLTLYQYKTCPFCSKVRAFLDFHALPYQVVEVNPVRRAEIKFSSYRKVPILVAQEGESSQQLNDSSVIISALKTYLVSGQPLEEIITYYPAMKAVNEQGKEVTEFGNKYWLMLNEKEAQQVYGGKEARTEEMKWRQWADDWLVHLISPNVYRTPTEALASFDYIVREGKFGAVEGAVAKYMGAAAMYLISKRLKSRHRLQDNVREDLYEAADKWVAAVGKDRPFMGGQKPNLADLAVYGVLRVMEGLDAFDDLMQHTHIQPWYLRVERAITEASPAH
smiles,measurement,setting,value
CC(C)C(=O)NCc1ccc(Cl)c(-c2nc3cc(-c4ccc(C(F)(F)F)cc4)ncc3c(=O)[nH]2)c1,IC50,Prostaglandin E synthase [1],5 nM
same,IC50,Prostaglandin E synthase [2],376 nM
same,inhibition,[3],2.74%
same,inhibition,[4],0.02%
same,inhibition,[5],18.7%
same,inhibition,[6],10.5%
same,inhibition,[7],12.1%
same,IC50,[8],12 nM
same,IC50,[9],161 nM
same,IC50,Prostaglandin E synthase [10],154 nM
same,Cmax,[11],72 ng/mL
same,Tmax,[12],24 h
same,remaining at 1 h,[13],77%
same,remaining at 1 h,[14],87%
